The values that follow come from paper PMC9477487, “Multitarget drugs as potential therapeutic agents for alzheimer’s disease. A new family of 5-substituted indazole derivatives as cholinergic and BACE1 inhibitors” (Journal of Enzyme Inhibition and Medicinal Chemistry, 2022).

Data set [1] concerns the target T1, AChE from human erythrocytes (Homo sapiens, UniProt P22303).
T1 construct: AChE from human erythrocytes (EC 3.1.1.7); purchased Sigma; host or cells: human erythrocytes (tissue-derived)
The experiment in a line: In vitro AChE inhibition assay (Ellman). The note with it: for inhibition at 10 µM: 10 µM compound, read-out: AChE percentage of inhibition at 10 µM; for IC50: mean ± SEM, 3 experiments, acetylthiocholine substrate. The class given is biochemical. The protocol:
(§1) AChE from human erythrocytes (EC 3.1.1.7) (min. 500 units/mg protein in buffered aqueous solution) and BuChE from human serum (EC 3.1.1.8) (3 units/mg protein, lyophilised powder) were purchased from Sigma.
(§2) Compounds were evaluated in 100 mM phosphate buffer pH 8.0 at 30 °C, using acetylthiocholine and butyrylthiocholine (0.4 mM) as substrates, respectively. In both cases, 5,5-dithio-bis(2-nitrobenzoic) acid (DTNB, Ellman’s reagent, 0.2 mM) was used and the values of IC50 were calculated by UV spectroscopy from the absorbance changes at 412 nm. Experiments were performed in triplicate.
In general terms: DTNB colorimetry detects thiols as they appear.

In a further data set the target is T2, BuChE from human serum (Homo sapiens, UniProt P06276).
T2 construct: BuChE from human serum (EC 3.1.1.8); purchased Sigma; host or cells: human serum (tissue-derived)
The data set is described as follows: In vitro BuChE inhibition assay (Ellman). To be noted: mean ± SEM, 3 experiments, butyrylthiocholine substrate. It counts as biochemical. The protocol:
as §1, §2

For a further data set, the target named is T3, BuChE (Homo sapiens, UniProt P06276).
T3 construct: BuChE from human serum (EC 3.1.1.8); purchased Sigma; host or cells: human serum (tissue-derived)
The data set is described as follows: Kinetic study of BuChE inhibition (Lineweaver-Burk plots). It counts as biochemical. The arrangement: key to Type of Inhibition (BuChE): M: mixed. How it is done: To investigate the mechanism of action of the compounds on AChE or BuChE, a kinetic analysis was performed. The experiments were carried out using combinations of four substrate concentrations and three inhibitor concentrations. Double-reciprocal Lineweaver–Burk plots of the data obtained, in which each point is the mean of three different experiments, were analysed.
Competitive inhibitors have the same y-intercept as uninhibited enzymes (since Vmax is unaffected by competitive inhibitors the inverse of Vmax also doesn’t change), but there are different slopes and x-intercepts. Non-competitive inhibition produces plots with the same x-intercept as uninhibited enzyme (Km is unaffected) but different slopes and y-intercepts. Uncompetitive inhibition causes different intercepts on both the y- and x-axes, but the same slope. Mixed inhibitors cause intersects above or below the x-axes.
The Ki, values were determined by fitting the kinetic data to a competitive, non-competitive, or mixed inhibition model by nonlinear regression analysis using GraphPad Prism[35].

A further data set has as its target T4, BACE1 (Homo sapiens, UniProt P56817).
T4 construct: purchased Invitrogen
The experiment in a line: BACE1 enzymatic FRET assay. It counts as biochemical. The note with it: pH 4.5, mean ± SEM. The protocol: The BACE1 ([…]) assay was carried out according to the manufacturer’s described protocol which is available from Invitrogen[36].
Briefly, BACE1 in vitro assays were carried out using fluorescence resonance energy transfer (FRET). An APP-based peptide substrate (rhodamine-EVNLDAEFK-quencher, Km of 20 μM) carrying the Swedish mutation and containing rhodamine as a fluorescence donor and a quencher acceptor at each end was used. The intact substrate is weakly fluorescent and becomes highly fluorescent upon enzymatic cleavage. The assays were conducted in 50 mM sodium acetate buffer, pH 4.5, at a final enzyme concentration of 1 U/mL. Inhibitor screening was performed at 10 μM. The mixture was incubated for 60 min at 25 °C under dark conditions and then stopped with 2.5 M sodium acetate. Fluorescence was measured with a FLUOstar Optima (BMG Labtechnologies GmbH, Offenburg, Germany) microplate reader at 545 nm excitation and 585 nm emission. The assay kit was validated by the manufacturer.

A short description of data set [2]: Oxygen radical absorbance capacity assay (ORAC-FL). The note with it: pH 7.4. The protocol: The ORAC-FL method of Ou et al.[37], partially modified by Dávalos et al.[38], was followed, using a FLUOstar Optima (BMG Labtechnologies GmbH, Offenburg, Germany) with 485 excitation and 520 emission filters. 2,2′-Azobis-(amidinopropane) dihydrochloride (AAPH), (±)-6-hydroxy-2,5,7,8-tetramethylchromane-2-carboxylic acid (trolox) and fluorescein (FL) were purchased from Sigma-Aldrich. The reaction was carried out in 75 mM phosphate buffer (pH 7.4) and the final reaction mixture was 200 µL. […] The mixture was pre-incubated for 30 min at 37 °C and then AAPH solution (25 µL, 240 mM) was added rapidly using a multichannel pipette. The microplate was immediately placed in the reader and the fluorescence was recorded every 90 s. for 90 min. The microplate was automatically shaken prior to each reading. Samples were measured at four different concentrations (10^−1 µM). A blank (FL + AAPH in phosphate buffer) instead of the sample solution and four calibration solutions using trolox (10^−1 µM) was also used in each assay. All of the reaction mixtures were prepared in duplicate and at least three independent assays were performed for each sample. Raw data were exported from the Fluostar optima Software to an Excel sheet for further calculations. Antioxidant curves (fluorescence vs. time) were represented and the area under the curve (AUC) is calculated as: AUC =f1/f0+fi/f0+ … +f34/f0+ (f35/f0) where fo = initial fluorescence reading at 0 min and fi = fluorescence reading at time i. The net AUC is obtained by subtracting the AUC of the blank from that of a sample. The relative Trolox equivalent ORAC value is calculated as: Relative ORAC value =[(AUC sample - AUC blank)/(AUCT rolox - AUC blank)](molarity of trolox/molarity of sample)

Data set [3] relates to Raw 264.7 cells. The data set is described as follows: Cell viability (MTT) of Raw 264.7 cells. The class given is cell-based. How it is done: (§3) Cell viability was measured using the 3-(4,5-Dimethylthiazol-2-yl)-2,5-diphenyltetrazolium bromide (MTT) assay, based on the ability of viable cells to reduce yellow MTT to blue formazan. Briefly, cells cultured in 96-well plates and treated with the indicated compounds for 16 h were incubated with MTT (0.5 mg/ml, 4 h) and subsequently solubilised in DMSO. The extent of reduction of MTT was quantified by absorbance measurement at 595 nm according to the manufacturer’s protocol.

Data set [4] deals with SH-SY5Y human neuroblastoma cells. The experiment in a line: Amyloid-beta peptide neurotoxicity, neuroprotection in SH-SY5Y cells (MTT). It counts as cell-based. The note with it: 24 h. How it is done:
SH-SY5Y human neuroblastoma cells were obtained from American Type Culture Collection. Cells were maintained at 37 °C in a 5% CO2 humidified atmosphere in DMEM-Glutamax supplemented with heat-inactivated 10% foetal bovine serum and 1% penicillin/streptomycin. All experiments with Aβ1–42 used DMEM-Glutamax without phenol in the media.
The compounds were dissolved in 100% dimethyl sulphoxide (DMSO) as a 10 mM stock and diluted with culture medium to final concentrations. Aβ1–42 powder (AnaSpec, Inc., San Jose, CA) was dissolved in acetic acid (0.1 M) obtaining a 2 μg/μL stock. Then Aβ1-42 was oligomerised in no phenol red DMEM for 24 h at 37 °C. The final concentration in cells cultures was 5 μM. All dilutions of stock were prepared fresh before addition to the culture medium.
SH-SY5Y cells were treated with 5 μM Aβ1-42 for 24 h and pre-treated or not for 1 h with increasing concentrations of compounds. After treatment, cultures were processed for a cell viability assay using MTT assay.
as §3

In data set [5] the test system is Raw 264.7 cells. The experiment in a line: Nitrite determination (Griess) in LPS-stimulated Raw 264.7 cells. To be noted: LPS 0.4 µg/mL, 24 h. It counts as cell-based, murine. How it is done: The content of nitrite, one of the end-products of NO oxidation, was monitored by a procedure based on the diazotidation of nitrite by sulphanilic acid (Griess reaction). Twenty-four hours after the incubation of Raw 264.7 cells with 0.4 µg/mL of LPS, 50 µL of sample aliquots were mixed with 50 µL of Griess reagent in 96-well plates and incubated at room temperature for 15 min. The absorbance (520 nm) of the mixture was measured on a microplate reader. The concentration of nitrite was calculated with the linear equation derived from the standard curve generated by known concentrations of sodium nitrite.
On the technique in general: Nitrite, measured by Griess reagent, commonly stands in for NO production.

Where [6] appears, read: 10 µM compound added 1 h prior to 5 µM Aβ.

T4 sequence (P56817 46-501): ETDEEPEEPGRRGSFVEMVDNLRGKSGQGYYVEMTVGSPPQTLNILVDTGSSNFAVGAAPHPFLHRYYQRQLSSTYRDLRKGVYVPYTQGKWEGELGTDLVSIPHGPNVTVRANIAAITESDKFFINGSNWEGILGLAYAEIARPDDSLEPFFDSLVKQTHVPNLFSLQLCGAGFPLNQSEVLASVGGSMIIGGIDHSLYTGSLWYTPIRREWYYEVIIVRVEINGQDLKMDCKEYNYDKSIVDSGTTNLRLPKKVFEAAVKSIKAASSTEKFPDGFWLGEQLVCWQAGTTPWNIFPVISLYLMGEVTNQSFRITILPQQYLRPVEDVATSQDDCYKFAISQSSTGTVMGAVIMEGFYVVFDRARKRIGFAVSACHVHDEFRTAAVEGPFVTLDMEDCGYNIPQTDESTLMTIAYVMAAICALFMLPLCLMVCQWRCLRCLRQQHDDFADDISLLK
T1 sequence (P22303 32-617 isoform P22303-2 limits assumed): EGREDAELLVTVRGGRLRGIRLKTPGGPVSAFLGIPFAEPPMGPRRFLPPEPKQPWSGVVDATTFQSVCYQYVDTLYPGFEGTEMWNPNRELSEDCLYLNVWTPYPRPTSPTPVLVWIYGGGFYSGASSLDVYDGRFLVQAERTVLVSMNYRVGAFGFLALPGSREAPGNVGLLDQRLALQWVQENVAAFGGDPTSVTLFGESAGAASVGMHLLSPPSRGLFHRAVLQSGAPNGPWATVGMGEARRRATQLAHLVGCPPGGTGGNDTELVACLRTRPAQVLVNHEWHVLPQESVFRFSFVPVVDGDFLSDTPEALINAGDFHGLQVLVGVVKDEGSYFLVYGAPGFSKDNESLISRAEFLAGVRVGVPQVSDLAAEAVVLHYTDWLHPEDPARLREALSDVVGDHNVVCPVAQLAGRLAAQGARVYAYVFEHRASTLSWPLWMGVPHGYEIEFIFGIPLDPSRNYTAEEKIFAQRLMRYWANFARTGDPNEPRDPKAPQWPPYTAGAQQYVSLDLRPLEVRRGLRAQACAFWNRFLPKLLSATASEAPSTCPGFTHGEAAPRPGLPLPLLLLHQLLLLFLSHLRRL
T3 sequence (P06276 29-602): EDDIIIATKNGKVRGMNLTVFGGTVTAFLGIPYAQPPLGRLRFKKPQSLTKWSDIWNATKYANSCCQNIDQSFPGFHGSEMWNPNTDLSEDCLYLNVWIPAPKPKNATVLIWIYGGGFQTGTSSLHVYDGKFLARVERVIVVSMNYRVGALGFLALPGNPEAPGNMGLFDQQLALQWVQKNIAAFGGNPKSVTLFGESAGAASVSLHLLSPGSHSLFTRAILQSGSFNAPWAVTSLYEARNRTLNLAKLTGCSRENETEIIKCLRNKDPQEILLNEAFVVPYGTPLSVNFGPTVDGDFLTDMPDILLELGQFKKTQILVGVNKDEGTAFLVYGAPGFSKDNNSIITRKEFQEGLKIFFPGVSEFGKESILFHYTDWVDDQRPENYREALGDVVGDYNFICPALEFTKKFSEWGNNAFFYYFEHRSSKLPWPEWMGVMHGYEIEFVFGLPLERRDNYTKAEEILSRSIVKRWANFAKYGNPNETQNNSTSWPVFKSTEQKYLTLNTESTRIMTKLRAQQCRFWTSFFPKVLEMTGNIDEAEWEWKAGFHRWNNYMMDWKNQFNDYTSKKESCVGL
T2 sequence (P06276 29-602): as above

Take `Clc1cccc(Cn2nc(OCc3ccccc3)c3cc(NCCCN4CCCCC4)ccc32)c1Cl` [Compound 2]: in data set [1], the inhibition – broadly, the drop in the measured response relative to a control, in per cent – at 10 µM is 27%. Also, the results for the half-maximal inhibitory concentration (IC50) (in data set [1]; at BuChE from human serum; at BACE1) were greater than 10 µM, 400 ± 40 nM and 3200 ± 200 nM, respectively. Further, the “Type of Inhibition (BuChE)” value on BuChE is reported as “M”. Besides, the “ORAC (Oxygen Radical Absorbance Capacity)” value (“ORAC” below) in data set [2] was 0.7 ± 0.1 μmol of Trolox equivalents/μmol of tested compound. For the same molecule, the “Cytotoxicity on Raw 264.7 cells viability” value (from here on “Cytotoxicity”) in the data set on Raw 264.7 cells [3] (10 µM) is “show cytotoxicity”. Further, the “Aβ-induced death of SH-SY5Y cells” value in data set [4] (5 µM compound added 1 h prior to 5 µM Aβ) is on record as “able to prevent cell death”.
Take `Clc1ccc(Cn2nc(OCc3cccc4ccccc34)c3cc(NCCCN4CCCCC4)ccc32)cc1Cl` [Compound 3]: in data set [1], the inhibition at 10 µM was found to be 38%. In addition, the results for the IC50 (in data set [1]; against BuChE from human serum; against BACE1) were greater than 10 µM, 170 ± 50 nM and 2100 ± 200 nM, respectively. Further, the “Type of Inhibition (BuChE)” value at BuChE was “M”. Further, the “ORAC” value in data set [2] is 0.6 ± 0.1 μmol of Trolox equivalents/μmol of tested compound. Further, the “LPS-induced NO production (extracellular nitrite)” value in the data set on Raw 264.7 cells [5] (10 µM compound) is listed as “able to attenuate LPS-induced NO production”. In addition, in the data set on Raw 264.7 cells [3] (10 µM), the “Cytotoxicity” value was “did not show any significant cytotoxic effect”. In addition, the “Aβ-induced death of SH-SY5Y cells” value in data set [4] (setting [6]) is “significantly reduced cell death”.
For the molecule `c1ccc(Cn2nc(OCc3cccc4ccccc34)c3cc(NCCCN4CCCCC4)ccc32)cc1` [Compound 1], the inhibition at 10 µM in data set [1] is 23%. Also, the IC50 – broadly, the point on the concentration scale where inhibition reaches its midpoint – in data set [1] was greater than 10 µM; at BuChE from human serum, 3200 ± 500 nM; at BACE1, 2700 ± 100 nM. For the same molecule, the “Type of Inhibition (BuChE)” value at BuChE is on record as “M”. Besides, in data set [2], the “ORAC” value is listed as 1.1 ± 0.1 μmol of Trolox equivalents/μmol of tested compound. For the same molecule, the “Cytotoxicity” value with Raw 264.7 cells [3] (10 µM) is listed as “show cytotoxicity”. In addition, the “Aβ-induced death of SH-SY5Y cells” value in data set [4] (setting [6]) is “significantly reduced cell death”.
For the molecule `c1ccc2cc(COc3nn(Cc4ccc5ccccc5c4)c4ccc(NCCCN5CCCCC5)cc34)ccc2c1` [Compound 6], the figures for the half-maximal inhibitory concentration (IC50) (in data set [1]; on BuChE from human serum; on BACE1) were 9 ± 1 µM, 3700 ± 300 nM and 3400 ± 200 nM, respectively. In addition, at BuChE, the “Type of Inhibition (BuChE)” value is recorded as “M”. In addition, the “ORAC” value in data set [2] was 0 μmol of Trolox equivalents/μmol of tested compound. In addition, the “LPS-induced NO production (extracellular nitrite)” value is recorded as “able to attenuate LPS-induced NO production” in the data set with Raw 264.7 cells [5] (10 µM compound); “inhibited NO production” in the data set with Raw 264.7 cells [5] (20, 30 and 40 µM compound). Also, in the data set with Raw 264.7 cells [3] (10, 20, 30, 40 µM), the “Cytotoxicity” value is on record as “did not show any significant cytotoxic effect”. Further, in data set [4] (setting [6]), the “Aβ-induced death of SH-SY5Y cells” value was “significantly reduced cell death”.
With `Clc1ccc(Cn2nc(OCc3ccc4ccccc4c3)c3cc(NCCCN4CCCCC4)ccc32)cc1Cl` [Compound 4], in data set [1], the inhibition at 10 µM stood at 26%. The figures for the IC50 (in data set [1]; at BuChE from human serum; against BACE1) were greater than 10 µM, 570 ± 200 nM and 1900 ± 100 nM, respectively. For the same molecule, the “Type of Inhibition (BuChE)” value on BuChE is recorded as “M”. For the same molecule, the “ORAC” value in data set [2] is on record as 0.7 ± 0.1 μmol of Trolox equivalents/μmol of tested compound. Moreover, the “Cytotoxicity” value in the data set with Raw 264.7 cells [3] (10 µM) is given as “show cytotoxicity”. For the same molecule, the “Aβ-induced death of SH-SY5Y cells” value in data set [4] (setting [6]) is recorded as “significantly reduced cell death”.
